Data published in patent publication US20040133938A1, “Use of lipoic acid in plant culture media” (priority 2002, published 2004).

Test system: immature embryos of wheat cv Bobwhite
Assay: Wheat Agrobacterium transformation
Type: cell-based, Triticum aestivum L
Conditions: for Efficiency (%) / Responding calli (%): selection and first regeneration media
Procedure: This example describes the use of lipoic acid in an Agrobacterium-based wheat transformation process. Immature embryos of wheat (Triticum aestivum L) cv Bobwhite were isolated from the immature caryopsis (wheat spikelets) 13-15 days after pollination, and cultured on M7 media (M7 medium is based on CM4C medium [Table 8], but the amount of MS salts was doubled and the picloram concentration was increased from 2.4 mg/L to 4 mg/L) containing 0.02 mM glyphosate for 3-4 days in the dark at 25° C. The embryos without embryogenic callus were selected for Agrobacterium inoculation. After preculture, 100 embryos were inoculated in 5 mL 1/10 CM4C medium with 5 mL Agrobacterium (OD660=1), 10 μL Pluronic F68 was added, and the mixture was incubated for 15 minutes in the dark at room temperature. Embryos were placed on sterilized filter paper with 200 μL deionized water and cocultured in the dark for 3 days at 23° C. Embryos were then transferred to delay media for 7 days in the dark at 25° C. Delay medium consists of CM4C, 500 mg/L carbenicillin, and 0.02 mM glyphosate. Selection was then performed on CM4C with 2 mM glyphosate, 500 mg/L carbenicillin and aromatic amino acids (10^−7/amino acid) for 7 days. Regeneration was started on MMSO.2C with 0.1 mM glyphosate, 250 mg/L carbenicillin, and aromatic amino acids ([…]) for 2 weeks in the light at 25° C. Regeneration was continued in MMSO.2C with 0.02 mM glyphosate, 500 mg/L carbenicillin, aromatic amino acids (10^−7/amino acid), and 2 μM copper sulfate for 2-8 weeks (with a transfer every 2 weeks) in the light at 25° C. Finally, plantlets were transferred to sundae cups with MMSO media with 0.02 mM glyphosate, and 500 mg/L carbenicillin.

[1] = Delay-selection-first regeneration 25-25-50 (μM), 599 explants
[2] = Delay-selection-first regeneration 25-50-50 (μM), 560 explants
[3] = Delay-selection-first regeneration 50-50-50 (μM), 570 explants

In the case of `O=C(O)CCCCC1CCSS1` (stereo not shown) [lipoic acid, 1,2-dithiolane-3-pentanoic acid], the “Efficiency (%)” value (5 μM in delay, 472 explants) is reported as 3.8%, the “Responding calli (%)” value (5 μM in delay, 472 explants) is reported as 33.1% and the “Efficiency (%)” value (10 μM in delay, 486 explants) is reported as 3.2%. For the same compound, the “Responding calli (%)” value (10 μM in delay, 486 explants) was 38.8%, the “Efficiency (%)” value (30 μM in delay, 486 explants) was 3.0% and the “Responding calli (%)” value (30 μM in delay, 486 explants) was 38.6%. The “Efficiency (%)” value (50 μM in delay, 482 explants) was 5.1%, the “Responding calli (%)” value (50 μM in delay, 482 explants) was 47.9% and the “Efficiency (%)” value (100 μM in delay, 464 explants) was 2.2%. The “Responding calli (%)” value (100 μM in delay, 464 explants) was 28.4%, the “% efficiency” value [1] was 3.0% and the “% responding calli” value [1] was 41.7%. For the same compound, the “% efficiency” value [2] was 5.4%, the “% responding calli” value [2] was 50.5% and the “% efficiency” value [3] was 4.9%. For the same compound, the “% responding calli” value [3] was 49.6%.
